Measured values published in ChEMBL document CHEMBL4813915, “Deep learning enables discovery of highly potent anti-osteoporosis natural products” (Eur J Med Chem, 2021).

Tests used:
[1] = Cytotoxicity against C57BL/6 mouse bone marrow measured after 48 hrs by CCK8 assay; type: tissue-based, BMDM; conditions: mouse bone marrow cells
BMDM [2] = test: Inhibition of RANKL-induced osteoclastogenesis in C57BL/6 mouse bone marrow derived macrophages assessed as reduction in CTSK mRNA expression measured after 4 days by qRT-PCR method; type: functional, tissue-based; conditions: dose 0.5-5 µM, time 4.0 day
[3] = Inhibition of GST-tagged recombinant RANKL/M-CSF-induced osteoclastogenesis in C57BL/6 mouse bone marrow derived macrophages assessed as TRAcP enzymatic activity incubated for 5 days with subsequent replenishment of media for 2 days and measured by leucocyte acid phosphatase staining method; type: functional, tissue-based; conditions: bmdm
BMDM [4] = test: Inhibition of RANKL-induced osteoclastogenesis in C57BL/6 mouse bone marrow derived macrophages assessed as reduction in RANK mRNA expression measured after 4 days by qRT-PCR method; type: functional, tissue-based; conditions: dose 0.5-5 µM, time 4.0 day
BMDM [5] = test: Inhibition of RANKL-induced osteoclastogenesis in C57BL/6 mouse bone marrow derived macrophages assessed as reduction in TRACP mRNA expression measured after 4 days by qRT-PCR method; type: functional, tissue-based; conditions: dose 0.5-5 µM, time 4.0 day
BMDM [6] = test: Inhibition of RANKL-induced osteoclastogenesis in C57BL/6 mouse bone marrow derived macrophages assessed as reduction in NFATC1 mRNA expression measured after 4 days by qRT-PCR method; type: functional, tissue-based; conditions: dose 0.5-5 µM, time 4.0 day

For `COc1cc2c(cc1OC)C(Cc1ccc(OCc3ccccc3)c(OC)c1)=NCC2`, the CC50 at 48 h [1] was 26800 nM, the inhibition (BMDM [2]) was “Dose-Dependent Effect” and the IC50 ([3]; read-out: IC50) was 32 nM. The inhibition (BMDM [4]) was “Dose-Dependent Effect”, the inhibition (BMDM [5]) was “Dose-Dependent Effect” and the inhibition (BMDM [6]) was “Dose-Dependent Effect”.

In the case of `C=C1CC[C@@H]2[C@](C)(CO)[C@H](O)CC[C@@]2(C)[C@@H]1C/C=C1/C(=O)OC[C@H]1O` [ANDROGRAPHOLIDE], the IC50 ([3]; read-out: IC50) is reported as 550 nM.

For `COc1cc2nc3occc3c(OC)c2cc1OC` [KOKUSAGININE], the IC50 ([3]; read-out: IC50) was 3160 nM.

In the case of `COc1c2cc3c(cc2nc2occc12)OCO3` [MACULINE], the IC50 [3] is reported as “Not Active”.

Work on `CC(=O)[C@H]1CC[C@H]2[C@@H]3CC[C@H]4C[C@@H](OC(=O)Cc5ccc(C(=O)c6ccccc6)cc5)CC[C@]4(C)[C@H]3CC[C@]12C` yielded an IC50 ([3]; read-out: IC50) of 1730 nM.

For `COc1ccc2c(c1)CCN=C2Cc1ccc(OCc2ccccc2)c(OC)c1C`, the CC50 at 48 h [1] was 19900 nM, the inhibition (BMDM [2]) was “Dose-Dependent Effect” and the IC50 ([3]; read-out: IC50) was 68 nM. The inhibition (BMDM [4]) was “Dose-Dependent Effect”, the inhibition (BMDM [5]) was “Dose-Dependent Effect” and the inhibition (BMDM [6]) was “Dose-Dependent Effect”.

In the case of `COc1ccc(C[C@H]2c3cc(OC)c(OC)cc3CCN2C)cc1OC`, the IC50 [3] is reported as “Not Active”.

In the case of `COc1cc([C@H]2OC[C@H]3[C@@H]2CO[C@@H]3c2ccc(OC(C)=O)c(OC)c2)ccc1OC(C)=O`, the IC50 [3] is reported as “Not Active”.

In the case of `COc1ccc(C(=O)/C=C/c2ccccc2)c(O)c1`, the IC50 [3] is reported as “Not Active”.

In the case of `C[C@@H]1CC[C@@]2(OC1)O[C@H]1C[C@H]3[C@@H]4CC[C@H]5C[C@H](O)CC[C@]5(C)C4=CC[C@]3(C)[C@H]1[C@@H]2C`, the IC50 [3] is reported as “Not Active”.
